SMILES: CC(C)(C)OC(=O)[C@@H](N)Cc1ccc(O)c(O)c1
- logP: 0.81

SMILES: N[C@@H](Cc1ccc(O)cc1)C(=O)Oc1ccc([N+](=O)[O-])cc1
- logP: 1.62

SMILES: CCOC(=O)[C@@H](N)Cc1ccc(O)cc1
- logP: 0.6

SMILES: N[C@@H](Cc1ccc(O)c(O)c1)C(=O)OCC1CCCO1 (stereo partly drawn)
- logP: 0.01

SMILES: CCC(C)OC(=O)[C@@H](N)Cc1ccc(O)cc1 (stereo partly drawn)
- logP: 1.59

SMILES: CCC(C)OC(=O)[C@@H](N)Cc1ccc(O)c(O)c1 (stereo partly drawn)
- logP: 0.93

SMILES: CC(C)OC(=O)[C@@H](N)Cc1ccc(O)cc1
- logP: 0.99

SMILES: COC(=O)[C@@H](N)Cc1ccc(O)cc1
- logP: 0.18

SMILES: COC(=O)[C@@H](N)Cc1ccc(O)c(O)c1
- logP: -0.28

SMILES: CC(C)OC(=O)[C@@H](N)Cc1ccc(O)c(O)c1
- logP: 0.52

SMILES: N[C@@H](Cc1ccc(O)c(O)c1)C(=O)OC1CCOC1 (stereo partly drawn)
- logP: -0.45

SMILES: N[C@@H](Cc1ccccc1)C(=O)OCc1ccccc1
- logP: 2.48

SMILES: CC(C)(C)OC(=O)N[C@@H](Cc1ccc(O)c(O)c1)C(=O)O
- logP: -1.86
